Source: US7964531B2, “3-phenoxy-4-pyridazinol derivatives and herbicidal composition containing the same” (Mitsui Chemicals Agro, Inc., priority 2001, dated 2011)

Columns and labels:
[1] = test system: annual broad-leaved weeds (Lindernia spp. and Rotala indica); test: Test Example 4: herbicidal effects of mixed wettable powder, paddy-field pot test; type: in vivo; details: no second compound, after 25 days
Description: (§1) Paddy filed soil was filled in 1/5000 are Wagner pot, seeds of barnyardgrass (Echinochloa oryzicola Vasing.), Scirpus joncoides and annual broad-leaved weeds (Lindernia spp. and Rotala indica) which are awaken from dormancy were mixed at the surface layer of 1 cm. Also, tubers of Cyperus serotinus, Sagittaria pygmaea and Eleocharis kuroguwai which are awaken from dormancy were planted, and further seedlings of paddy-field rice at 2.2-leaf stage were transplanted and they were grown under the flooded condition in a greenhouse. After 3 days from the transplanting, a predetermined chemical dosage of the wettable powder prepared in accordance with Preparation example 5 was diluted with water, and applied to the pot. After 25 days, herbicidal effects and crop injury against transplanted paddy-field rice were judged according to the following judgment standard, and the results were shown in Table 5. Incidentally, “-” in the table means a composition containing no effective ingredient.
(§2) Judgment Standard • 0: Growth-inhibition rate; 0 to 15% • 1: Growth inhibition rate; 16 to 35% • 2: Growth inhibition rate; 36 to 55% • 3: Growth inhibition rate; 56 to 75% • 4: Growth inhibition rate; […] • 5: Growth inhibition rate; 96 to 100%.

Sagittaria pygmaea = test: as above; type: in vivo; details: no second compound, after 25 days
Description: as §1, §2

[2] = test system: barnyardgrass (Echinochloa oryzicola Vasing.); test: as above; type: in vivo; details: no second compound, after 25 days
Description: as §1, §2

Cyperus serotinus [3] = test: as above; type: in vivo; details: no second compound, after 25 days
Description: as §1, §2

Scirpus joncoides [4] = test: as above; type: in vivo; details: no second compound, after 25 days
Description: as §1, §2

Eleocharis kuroguwai = test: as above; type: in vivo; details: no second compound, after 25 days
Description: as §1, §2

[5] = test system: transplanted paddy-field rice; test: Test Example 4: crop injury against transplanted paddy-field rice; type: in vivo; details: no second compound, after 25 days
Description: as §1, §2

[6] = test system: transplanted paddy-field rice; test: Test Example 1: crop injury against transplanted paddy-field rice; type: in vivo; details: wettable powder applied 3 days after transplanting, judged after 25 days
Outline: (§3)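 Scores are growth inhibition ratings from 0 (0–10%) to 5 (91–100%), judged 25 days after a water-diluted wettable powder was applied to flooded pots. Treatment followed transplanting of 2.2-leaf rice by 3 days; weeds were seeded at the soil surface or planted as germinated tubers.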

[7] = test system: barnyardgrass (Echinochloa oryzicola Vasing.); test: Test Example 1: herbicidal effects, paddy-field pot test; type: in vivo; details: wettable powder applied 3 days after transplanting, judged after 25 days
Outline: as §3

Cyperus serotinus [8] = test: as above; type: in vivo; details: wettable powder applied 3 days after transplanting, judged after 25 days
Outline: as §3

[9] = test system: annual broad-leaved weeds (Lindernia spp., Rotala indica); test: as above; type: in vivo; details: wettable powder applied 3 days after transplanting, judged after 25 days
Outline: as §3

Scirpus joncoides [10] = test: as above; type: in vivo; details: wettable powder applied 3 days after transplanting, judged after 25 days
Outline: as §3

| Structure (SMILES) | Herbicidal effects Broad leaf ([1]; derivative 5 g/a) | Herbicidal effects Broad leaf ([1]; derivative 10 g/a) | Herbicidal effects Sagittaria pygmaea (Sagittaria pygmaea; derivative 5 g/a) | Herbicidal effects Sagittaria pygmaea (Sagittaria pygmaea; derivative 10 g/a) | Herbicidal effects Barnyard grass ([2]; derivative 5 g/a) | Herbicidal effects Barnyard grass ([2]; derivative 10 g/a) | Herbicidal effects Cyperus serotinus (Cyperus serotinus [3]; derivative 5 g/a) | Herbicidal effects Cyperus serotinus (Cyperus serotinus [3]; derivative 10 g/a) | Herbicidal effects Scirpus joncoides (Scirpus joncoides [4]; derivative 5 g/a) | Herbicidal effects Scirpus joncoides (Scirpus joncoides [4]; derivative 10 g/a) | Herbicidal effects Eleocharis kuroguwai (Eleocharis kuroguwai; derivative 5 g/a) | Herbicidal effects Eleocharis kuroguwai (Eleocharis kuroguwai; derivative 10 g/a) | Crop injury against transplanted rice ([5]; derivative 5 g/a) | Crop injury against transplanted rice ([5]; derivative 10 g/a) | Crop injury against transplanted rice ([6]; chemical dosage 10 g/a) | Crop injury against transplanted rice ([6]; chemical dosage 20 g/a) | Herbicidal effects Barnyard grass ([7]; chemical dosage 10 g/a) | Herbicidal effects Barnyard grass ([7]; chemical dosage 20 g/a) | Herbicidal effects Cyperus serotinus (Cyperus serotinus [8]; chemical dosage 10 g/a) | Herbicidal effects Cyperus serotinus (Cyperus serotinus [8]; chemical dosage 20 g/a) | also measured |
| --- | --- | --- | --- | --- | --- | --- | --- | --- | --- | --- | --- | --- | --- | --- | --- | --- | --- | --- | --- | --- | --- |
| Cc1ccccc1Oc1nnc(Cl)cc1O [Example 1] | 3 (Growth inhibition rate; 56 to 75%) | 4 (Growth inhibition rate; 7.6 to 95%) | 4 (Growth inhibition rate; 7.6 to 95%) | 4 (Growth inhibition rate; 7.6 to 95%) | 2 (Growth inhibition rate; 36 to 55%) | 4 (Growth inhibition rate; 7.6 to 95%) | 4 (Growth inhibition rate; 7.6 to 95%) | 5 (Growth inhibition rate; 96 to 100%) | 2 (Growth inhibition rate; 36 to 55%) | 4 (Growth inhibition rate; 7.6 to 95%) | 0 (Growth-inhibition rate; 0 to 15%) | 0 (Growth-inhibition rate; 0 to 15%) | 0 (Growth-inhibition rate; 0 to 15%) | 0 (Growth-inhibition rate; 0 to 15%) | – | – | – | – | – | – | Crop injury against transplanted rice ([6]; chemical dosage 12.5 g/a): 0 (Growth inhibition rate; 0 to 10%); Crop injury against transplanted rice ([6]; chemical dosage 25 g/a): 0 (Growth inhibition rate; 0 to 10%); Herbicidal effects Barnyard grass ([7]; chemical dosage 12.5 g/a): 4 (Growth inhibition rate; 71 to 90%); Herbicidal effects Barnyard grass ([7]; chemical dosage 25 g/a): 5 (Growth inhibition rate; 91 to 100%); Herbicidal effects Cyperus serotinus (Cyperus serotinus [8]; chemical dosage 12.5 g/a): 5 (Growth inhibition rate; 91 to 100%); Herbicidal effects Cyperus serotinus (Cyperus serotinus [8]; chemical dosage 25 g/a): 5 (Growth inhibition rate; 91 to 100%); Herbicidal effects Broad leaf ([9]; chemical dosage 12.5 g/a): 5 (Growth inhibition rate; 91 to 100%); Herbicidal effects Broad leaf ([9]; chemical dosage 25 g/a): 5 (Growth inhibition rate; 91 to 100%); Herbicidal effects Scirpus joncoides (Scirpus joncoides [10]; chemical dosage 12.5 g/a): 5 (Growth inhibition rate; 91 to 100%); Herbicidal effects Scirpus joncoides (Scirpus joncoides [10]; chemical dosage 25 g/a): 5 (Growth inhibition rate; 91 to 100%) |
| Oc1cc(Cl)nnc1Oc1ccccc1C1CC1 [Example 6] | 5 (Growth inhibition rate; 96 to 100%) | 5 (Growth inhibition rate; 96 to 100%) | 5 (Growth inhibition rate; 96 to 100%) | 5 (Growth inhibition rate; 96 to 100%) | 1 (Growth inhibition rate; 16 to 35%) | 2 (Growth inhibition rate; 36 to 55%) | 5 (Growth inhibition rate; 96 to 100%) | 5 (Growth inhibition rate; 96 to 100%) | 5 (Growth inhibition rate; 96 to 100%) | 5 (Growth inhibition rate; 96 to 100%) | 2 (Growth inhibition rate; 36 to 55%) | 3 (Growth inhibition rate; 56 to 75%) | 0 (Growth-inhibition rate; 0 to 15%) | 0 (Growth-inhibition rate; 0 to 15%) | 0 (Growth inhibition rate; 0 to 10%) | 0 (Growth inhibition rate; 0 to 10%) | 2 (Growth inhibition rate; 31 to 50%) | 3 (Growth inhibition rate; 51 to 70%) | 5 (Growth inhibition rate; 91 to 100%) | 5 (Growth inhibition rate; 91 to 100%) | Herbicidal effects Broad leaf ([9]; chemical dosage 10 g/a): 5 (Growth inhibition rate; 91 to 100%); Herbicidal effects Broad leaf ([9]; chemical dosage 20 g/a): 5 (Growth inhibition rate; 91 to 100%); Herbicidal effects Scirpus joncoides (Scirpus joncoides [10]; chemical dosage 10 g/a): 5 (Growth inhibition rate; 91 to 100%); Herbicidal effects Scirpus joncoides (Scirpus joncoides [10]; chemical dosage 20 g/a): 5 (Growth inhibition rate; 91 to 100%) |
| COc1ccc(C)cc1Oc1nnc(Cl)cc1O [Example 16] | 5 (Growth inhibition rate; 96 to 100%) | 5 (Growth inhibition rate; 96 to 100%) | 3 (Growth inhibition rate; 56 to 75%) | 4 (Growth inhibition rate; 7.6 to 95%) | 0 (Growth-inhibition rate; 0 to 15%) | 0 (Growth-inhibition rate; 0 to 15%) | 4 (Growth inhibition rate; 7.6 to 95%) | 5 (Growth inhibition rate; 96 to 100%) | 3 (Growth inhibition rate; 56 to 75%) | 5 (Growth inhibition rate; 96 to 100%) | 0 (Growth-inhibition rate; 0 to 15%) | 1 (Growth inhibition rate; 16 to 35%) | 0 (Growth-inhibition rate; 0 to 15%) | 0 (Growth-inhibition rate; 0 to 15%) | 0 (Growth inhibition rate; 0 to 10%) | 0 (Growth inhibition rate; 0 to 10%) | 0 (Growth inhibition rate; 0 to 10%) | 1 (Growth inhibition rate; 11 to 30%) | 5 (Growth inhibition rate; 91 to 100%) | 5 (Growth inhibition rate; 91 to 100%) | Herbicidal effects Broad leaf ([9]; chemical dosage 10 g/a): 5 (Growth inhibition rate; 91 to 100%); Herbicidal effects Broad leaf ([9]; chemical dosage 20 g/a): 5 (Growth inhibition rate; 91 to 100%); Herbicidal effects Scirpus joncoides (Scirpus joncoides [10]; chemical dosage 10 g/a): 5 (Growth inhibition rate; 91 to 100%); Herbicidal effects Scirpus joncoides (Scirpus joncoides [10]; chemical dosage 20 g/a): 5 (Growth inhibition rate; 91 to 100%) |
| Oc1cc(Cl)nnc1Oc1cccc2ccoc12 [Example 191] | – | – | – | – | – | – | – | – | – | – | – | – | – | – | 2 (Growth inhibition rate; 31 to 50%) | 5 (Growth inhibition rate; 91 to 100%) | 4 (Growth inhibition rate; 71 to 90%) | 5 (Growth inhibition rate; 91 to 100%) | 5 (Growth inhibition rate; 91 to 100%) | 5 (Growth inhibition rate; 91 to 100%) | Herbicidal effects Broad leaf ([1]; derivative 2.5 g/a): 3 (Growth inhibition rate; 56 to 75%); Herbicidal effects Sagittaria pygmaea (Sagittaria pygmaea; derivative 2.5 g/a): 2 (Growth inhibition rate; 36 to 55%); Herbicidal effects Barnyard grass ([2]; derivative 2.5 g/a): 1 (Growth inhibition rate; 16 to 35%); Herbicidal effects Cyperus serotinus (Cyperus serotinus [3]; derivative 2.5 g/a): 5 (Growth inhibition rate; 96 to 100%); Herbicidal effects Scirpus joncoides (Scirpus joncoides [4]; derivative 2.5 g/a): 3 (Growth inhibition rate; 56 to 75%); Herbicidal effects Eleocharis kuroguwai (Eleocharis kuroguwai; derivative 2.5 g/a): 1 (Growth inhibition rate; 16 to 35%); Crop injury against transplanted rice ([5]; derivative 2.5 g/a): 0 (Growth-inhibition rate; 0 to 15%); Herbicidal effects Broad leaf ([9]; chemical dosage 10 g/a): 5 (Growth inhibition rate; 91 to 100%); Herbicidal effects Broad leaf ([9]; chemical dosage 20 g/a): 5 (Growth inhibition rate; 91 to 100%); Herbicidal effects Scirpus joncoides (Scirpus joncoides [10]; chemical dosage 10 g/a): 5 (Growth inhibition rate; 91 to 100%); Herbicidal effects Scirpus joncoides (Scirpus joncoides [10]; chemical dosage 20 g/a): 5 (Growth inhibition rate; 91 to 100%) |
| N#CC1CC1c1ccccc1Oc1nnc(Cl)cc1O (centres unmarked) [Compound No. 226, 2-{2-[(6-Chloro-4-hydroxy-3-pyridazinyl)oxy]phenyl}-cyclopropanecarbonitrile] | 5 (Growth inhibition rate; 96 to 100%) | 5 (Growth inhibition rate; 96 to 100%) | 5 (Growth inhibition rate; 96 to 100%) | 5 (Growth inhibition rate; 96 to 100%) | 3 (Growth inhibition rate; 56 to 75%) | 3 (Growth inhibition rate; 56 to 75%) | 5 (Growth inhibition rate; 96 to 100%) | 5 (Growth inhibition rate; 96 to 100%) | 4 (Growth inhibition rate; 7.6 to 95%) | 5 (Growth inhibition rate; 96 to 100%) | 1 (Growth inhibition rate; 16 to 35%) | 2 (Growth inhibition rate; 36 to 55%) | 0 (Growth-inhibition rate; 0 to 15%) | 0 (Growth-inhibition rate; 0 to 15%) | – | – | – | – | – | – | melting point: 203 to 207 °C |
